According to PubChem BioAssay (NCI):
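In this assay, cells in 96-well plates receive the compound at five concentrations for 48 hours. Endpoints are linearly interpolated between the surrounding concentrations. GI50 = concentration required for 50% inhibition of growth. TGI is the concentration that stops growth completely.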

Legend:
Test in all cases: NCI anticancer screen, dose series, 48 h
LXFL 529 NSCLC = test system: LXFL 529 NSCLC
SNB-78 CNS = test system: SNB-78 CNS
KM20L2 colon = test system: KM20L2 colon
HOP-92 NSCLC = test system: HOP-92 NSCLC
NCI/ADR-RES ovarian = test system: NCI/ADR-RES ovarian
T-47D breast = test system: T-47D breast
BT-549 breast = test system: BT-549 breast
MCF7 breast = test system: MCF7 breast
PC-3 prostate = test system: PC-3 prostate
MDA-MB-435 = test system: MDA-MB-435

SMILES | TGI (LXFL 529 NSCLC) | TGI (SNB-78 CNS) | TGI (KM20L2 colon) | TGI (HOP-92 NSCLC) | further results
CCC1OCCN1C(C)C (stereo not drawn) | > 100 µM | > 100 µM | > 100 µM |  | 
CCOC(=O)CCC1(C(=O)OC)CCCC1=O (stereo not drawn) | > 100 µM | > 100 µM | > 100 µM | > 100 µM | 
Cc1ccc(NC(=O)CCC(=O)C2CC(=O)CC/C2=N\NC(=O)c2cc3ccccc3cc2O)cc1C (stereo not drawn) | > 100 µM | > 100 µM | 87.9 µM | > 100 µM | 
CC(=O)[CH-]C(=O)c1ccccc1.CC(=O)[CH-]C(=O)c1ccccc1.[O]=[U+2]=[O] | > 100 µM |  | > 100 µM | > 100 µM | GI50 (LXFL 529 NSCLC): 32.7 µM; GI50 (KM20L2 colon): 37.1 µM; GI50 (HOP-92 NSCLC): 39.9 µM
CC1OC(=O)N(CCCC=C2SCCCS2)C1=O (stereo not drawn) | > 100 µM | > 100 µM | > 100 µM | > 100 µM | 
C/C(=N\NS(=O)(=O)c1ccc(C)cc1)c1ccc[n+]([O-])n1 | > 100 µM |  | > 100 µM | > 100 µM | 
Cc1cc(N(CCC#N)S(=O)(=O)c2ccccc2)ccc1C=O | > 100 µM | > 100 µM | > 100 µM |  | 
CCOP(=O)(OCC)/C(C#N)=C\c1cccc2ccccc12 |  | > 100 µM | > 100 µM | 93.6 µM | TGI (NCI/ADR-RES ovarian): > 100 µM; TGI (T-47D breast): > 100 µM; TGI (BT-549 breast): > 100 µM; TGI (MCF7 breast): > 100 µM; TGI (PC-3 prostate): > 100 µM; TGI (MDA-MB-435): > 100 µM
CCOC(=O)/C=C1\Nc2ccccc2C(c2ccccc2)=NC1OC(C)=O (stereo not drawn) | > 100 µM | > 100 µM |  | > 100 µM | 
COc1ccc2cccc(C(=N)c3ccc(C)c4c3CCC4)c2c1 | 16.5 µM |  | 19.3 µM |  | 
COc1ccc(S(=O)(=O)N/N=C/C(=O)O)cc1 |  | > 1250 µM | > 1250 µM | 1110 µM | TGI (NCI/ADR-RES ovarian): 1030 µM; TGI (T-47D breast): > 1250 µM; TGI (BT-549 breast): 704 µM; TGI (MCF7 breast): > 1210 µM; TGI (PC-3 prostate): > 1250 µM; TGI (MDA-MB-435): > 1250 µM
Brc1ccc2c(c1)C1(c3cc(Br)ccc3-2)c2cc(Br)ccc2-c2ccc(Br)cc21 | > 100 µM | > 100 µM | > 100 µM |  | 
Cn1c(=O)c2c3oc(=O)cc(O)c3c(=O)n3c4ccccc4n(c1=O)c23 | > 100 µM | > 100 µM |  | 95.9 µM | 
O=C(CCCCCCCCC(=O)OCC1OC(n2cnc3c(=O)[nH]cnc32)C(O)C1O)OCC1OC(n2cnc3c(=O)[nH]cnc32)C(O)C1O (stereo not drawn) |  | > 100 µM | > 100 µM | > 100 µM | 
CC(=O)NC1C(OCc2ccccc2)OC(COC(=O)CCCCCCCCCCNC(=O)c2cccc3c(=O)c4ccccc4[nH]c23)C(O)C1OC(C)C(=O)NC(C)C(=O)NC(CCC(N)=O)C(N)=O (stereo not drawn) | > 100 µM | > 100 µM | > 100 µM |  | 
N#Cc1c2c(c(N=[N+]=[N-])n3c1nc1ccccc13)CCCC2 |  | 11.5 µM | 4.6 µM |  | 
S=C(Nc1ccccc1)Nc1[nH]c(=S)sc1-c1nc2ccccc2[nH]1 | > 100 µM | > 100 µM |  |  | 
COC(=O)/C(C#N)=C1\N=NNN1CCCN1CCOCC1 | > 100 µM | > 100 µM |  | > 100 µM | 
CC(CS(=O)(=O)Cc1ccccc1)C(N)=O (stereo not drawn) |  |  |  | > 100 µM | TGI (NCI/ADR-RES ovarian): > 100 µM; TGI (T-47D breast): > 100 µM; TGI (BT-549 breast): > 100 µM; TGI (MCF7 breast): > 100 µM; TGI (PC-3 prostate): > 100 µM; TGI (MDA-MB-435): > 100 µM
NC(Cc1nn[nH]n1)C(=O)O (stereo not drawn) |  |  |  | > 100 µM | TGI (NCI/ADR-RES ovarian): > 100 µM; TGI (T-47D breast): > 100 µM; TGI (BT-549 breast): > 100 µM; TGI (MCF7 breast): > 100 µM; TGI (PC-3 prostate): > 100 µM; TGI (MDA-MB-435): > 100 µM
Cc1c(C(C)C)cc(OCCO)cc1C(C)C |  |  |  | 57 µM | TGI (NCI/ADR-RES ovarian): > 100 µM; TGI (T-47D breast): > 100 µM; TGI (BT-549 breast): > 100 µM; TGI (MCF7 breast): > 100 µM; TGI (PC-3 prostate): 96.2 µM; TGI (MDA-MB-435): > 100 µM
CN1CC2(CCCCC2)C(O)C12C=CCCC2 (stereo not drawn) | > 100 µM | > 100 µM | > 100 µM |  | 
O=C(N[C@@H]1CCCc2ccccc21)[C@H](CCC(=O)N1CCN(C2CCCCC2)CC1)N1C(=O)[C@@H](N2C(=O)OC[C@@H]2c2ccccc2)[C@H]1/C=C/c1ccccc1 |  |  |  | 5.18 µM | GI50 (NCI/ADR-RES ovarian): 2780 nM; TGI (NCI/ADR-RES ovarian): 10.6 µM; GI50 (T-47D breast): 2980 nM; TGI (T-47D breast): 14.6 µM; GI50 (BT-549 breast): 1760 nM; TGI (BT-549 breast): 3.92 µM; GI50 (HOP-92 NSCLC): 1.58 µM; GI50 (MCF7 breast): 2180 nM; TGI (MCF7 breast): 13.4 µM; GI50 (PC-3 prostate): 2320 nM; TGI (PC-3 prostate): 8.35 µM; GI50 (MDA-MB-435): 1350 nM; TGI (MDA-MB-435): 2.72 µM
Cc1nnc2n1N=C(CC(=O)c1ccc(O)cc1O)CN2N | > 100 µM | > 100 µM | > 100 µM |  | 
Oc1cccc(-c2nc3ccccc3s2)c1 |  |  |  | > 100 µM | TGI (NCI/ADR-RES ovarian): 68.8 µM; TGI (T-47D breast): 56.8 µM; TGI (BT-549 breast): > 100 µM; TGI (MCF7 breast): > 100 µM; TGI (PC-3 prostate): > 100 µM; TGI (MDA-MB-435): > 100 µM
CC(C)OP(=O)(CP(=O)(OC(C)C)OC(C)C)OC(C)C.[CH3][Sn]([Br])([Br])[Br] |  | > 100 µM | > 100 µM | > 100 µM | GI50 (SNB-78 CNS): > 100 µM; GI50 (KM20L2 colon): > 100 µM; GI50 (HOP-92 NSCLC): > 100 µM
O=C(O)c1cc(Cl)cc(NC(=O)C(Cl)Cl)c1Cl | > 100 µM | > 100 µM | > 100 µM |  | 
COC(=O)c1c(C)oc2ccc(OC(C)=O)cc12 |  | > 100 µM | > 100 µM |  | 
